Assay results taken from PMC7247319, “The mitochondria-targeted peptide SS-31 binds lipid bilayers and modulates surface electrostatics as a key component of its mechanism of action” (The Journal of Biological Chemistry, 2020).
Where a SMILES comes first, the peptide text is derived from it. [ ]: non-standard residue; d: D form. Dmt = Cc1cc(O)cc(C)c1C[C@H](N)C(=O)O

Columns and labels:
Assay in all cases: SS-31 binding isotherms by endogenous 2′,6′-Dmt fluorescence (peptide and lipid titrations)
[1] = system: LUVs containing 20 mol % POPG in a POPC background; settings: 20% POPG/POPC LUVs, 20 mM HEPES-KOH pH 7.5, Scatchard and Langmuir fits of fluorescence isotherms
Text: (§1) The interaction of basic amphipathic peptides with negatively charged membranes depends on the electric field originating from the bilayer surface as well as specific electrostatic and hydrophobic interactions between the peptide and lipids (Fig. S2). The first objective of this study was to quantitatively evaluate the binding of SS-31 to model membranes with specific lipid composition. For spectroscopic analysis of SS-31 binding, we made use of the endogenous spectral properties of the 2′,6′-dimethyltyrosine (2′,6′-Dmt) side chain at the second position in the peptide. Our initial spectral characterization of SS-31 confirmed the feasibility of using endogenous peptide fluorescence to quantify peptide-membrane interactions (supporting Results A and B and Figs. S3 and S4). We therefore proceeded to measure the binding of SS-31 to large unilamellar vesicles (LUVs) containing anionic lipids in a host background of the zwitterionic lipid 1-palmitoyl-2-oleoyl-sn-glycero-3-phosphocholine (POPC, 16:0/18:1 PC). The anionic lipids included 1′,3′-bis[1,2-dioleoyl-sn-glycero-3-phospho]-glycerol (tetraoleoylcardiolipin (TOCL), all acyl chains 18:1), monolysocardiolipin (MLCL, all acyl chains 18:1), or 1-palmitoyl-2-oleoyl-sn-glycero-3-phosphoglycerol (POPG, 16:0/18:1 PG). Binding measurements were performed using two complementary approaches: (i) titration of fixed concentrations of LUVs with peptide and (ii) titration of fixed concentrations of peptide with LUVs (supporting Results C and Fig. S5). […]
(§2) Figure 2. […] A–C, fluorescence-based measurements. […] Statistical differences within each data set were determined relative to TOCL-containing membranes: •, p < 0.05; ••, p < 0.01.
(§3) To obtain equilibrium binding parameters n (the number of lipid molecules per peptide bound) and KD (the dissociation constant), we analyzed binding isotherm data by Scatchard analysis (Fig. 2C) and by fits of the data to Langmuir adsorption models (Equations S2 and S3 for peptide and lipid titrations, respectively). […]

[2] = system: LUVs containing 20 mol % MLCL in a POPC background; settings: 20% MLCL/POPC LUVs, 20 mM HEPES-KOH pH 7.5, Scatchard and Langmuir fits of fluorescence isotherms
Text: as §1, §2, §3

[3] = system: LUVs containing 20 mol % TOCL in a POPC background; settings: 20% TOCL/POPC LUVs, 20 mM HEPES-KOH pH 7.5, Scatchard and Langmuir fits of fluorescence isotherms
Text: as §1, §2, §3

## Cc1cc(O)cc(C)c1C[C@H](NC(=O)[C@H](N)CCCNC(=N)N)C(=O)N[C@@H](CCCCN)C(=O)N[C@@H](Cc1ccccc1)C(N)=O [SS-31, D-Arg-2′6′-dimethyl-Tyr-Lys-Phe-NH2] (H-[dR][Dmt]KF-NH2)
[1]
  n (number of lipid molecules per peptide bound), average lipid/peptide stoichiometry: 15.4
[2]
  n (number of lipid molecules per peptide bound), average lipid/peptide stoichiometry: 7.4
[3]
  n (number of lipid molecules per peptide bound), average lipid/peptide stoichiometry: 6.9
